Measurements reported in patent US20250197382A1, “KIF18A INHIBITOR” (WIGEN BIOMEDICINE TECHNOLOGY (SHANGHAI) CO., LTD., priority 2022, published 2025).

Each molecule was assayed against Recombinant human KIF18A (1-467His-tagged) protein (Homo sapiens (Human), UniProt Q8NI77) (assay: KIF18A enzyme assay (microtubule-stimulated ATPase activity, ADP-Glo)). Details: 30 nM KIF18A, ATP 75 μM, read-out: inhibitory activity against KIF18A IC50.
Type: biochemical
How it was run: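 Baculovirus-expressed human KIF18A (1-467, His-tagged; 30 nM) preincubated 15 min at room temperature with compound (22-point 2-fold series) in pH 7.5 Tris buffer containing 30 μg/mL pig microtubules and 1 μM paclitaxel.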

Chain of Recombinant human KIF18A (1-467His-tagged) protein (Q8NI77 1-467): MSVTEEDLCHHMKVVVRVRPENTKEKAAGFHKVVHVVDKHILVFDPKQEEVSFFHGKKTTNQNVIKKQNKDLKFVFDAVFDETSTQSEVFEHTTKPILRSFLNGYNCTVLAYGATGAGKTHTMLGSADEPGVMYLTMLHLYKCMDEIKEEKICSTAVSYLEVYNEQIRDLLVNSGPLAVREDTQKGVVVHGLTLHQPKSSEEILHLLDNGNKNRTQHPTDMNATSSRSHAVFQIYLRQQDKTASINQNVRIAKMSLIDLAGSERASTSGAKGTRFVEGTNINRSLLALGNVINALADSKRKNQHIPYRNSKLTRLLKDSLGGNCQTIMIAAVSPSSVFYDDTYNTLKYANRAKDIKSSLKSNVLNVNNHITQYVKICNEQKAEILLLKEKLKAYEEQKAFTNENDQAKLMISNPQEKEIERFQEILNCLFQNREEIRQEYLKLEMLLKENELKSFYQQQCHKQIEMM
Chain of Recombinant human KIF18A (1-467His-tagged) protein (P02550 whole entry partner): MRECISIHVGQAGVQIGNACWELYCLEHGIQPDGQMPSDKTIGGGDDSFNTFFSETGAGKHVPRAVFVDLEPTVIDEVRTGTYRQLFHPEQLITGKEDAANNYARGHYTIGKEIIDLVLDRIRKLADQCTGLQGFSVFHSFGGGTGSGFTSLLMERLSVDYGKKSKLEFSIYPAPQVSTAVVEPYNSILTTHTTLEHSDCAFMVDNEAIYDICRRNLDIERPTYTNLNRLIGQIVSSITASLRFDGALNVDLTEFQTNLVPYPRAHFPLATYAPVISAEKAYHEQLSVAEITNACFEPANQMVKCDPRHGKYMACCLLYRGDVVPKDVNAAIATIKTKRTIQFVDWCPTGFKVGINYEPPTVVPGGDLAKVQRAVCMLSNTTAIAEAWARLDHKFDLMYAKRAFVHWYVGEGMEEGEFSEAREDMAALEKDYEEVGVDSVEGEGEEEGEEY
Chain of Recombinant human KIF18A (1-467His-tagged) protein (P02554 whole entry partner): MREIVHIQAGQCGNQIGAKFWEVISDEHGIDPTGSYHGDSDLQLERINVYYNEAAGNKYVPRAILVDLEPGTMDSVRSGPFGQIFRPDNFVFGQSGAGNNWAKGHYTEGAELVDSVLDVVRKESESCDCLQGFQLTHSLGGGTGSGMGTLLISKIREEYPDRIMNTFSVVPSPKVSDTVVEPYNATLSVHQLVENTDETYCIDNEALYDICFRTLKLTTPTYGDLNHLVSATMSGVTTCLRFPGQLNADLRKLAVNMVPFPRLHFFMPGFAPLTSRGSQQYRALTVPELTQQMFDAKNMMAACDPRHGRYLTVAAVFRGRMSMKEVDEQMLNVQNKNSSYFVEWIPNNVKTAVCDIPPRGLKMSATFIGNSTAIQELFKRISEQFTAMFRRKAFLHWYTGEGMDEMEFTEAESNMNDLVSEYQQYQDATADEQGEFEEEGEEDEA

| SMILES | IC50 [nM] |
| --- | --- |
| Cn1ccc2cc(C(=O)Nc3ccc(NS(=O)(=O)CCO)cc3N3CCC4(CC3)CC4)cc(N3CCC4(CC4)C3)c21 [Compound 422] | ≤ 100 |
| O=C(Nc1ccc(NS(=O)(=O)CCO)cc1N1CCC2(CC1)CC2)c1cc2c(c(OCCC(F)(F)F)c1)OCC2 [Compound 37] | ≤ 100 |
| CN1CCc2cc(C(=O)Nc3ccc(S(=O)(=O)NCCO)cc3N3CCC4(CC3)CC4)cc(N3CCC4(CC4)C3)c21 [Compound 310] | ≤ 100 |
| O=C(Nc1cc2ccoc2c(N2CC(F)(F)C2)n1)c1ccc(NS(=O)(=O)CCO)cc1N1CCC2(CC1)CC2 [Compound 196] | ≤ 100 |
| C[C@H]1CN(c2cc(NC(=O)c3ccc(NS(=O)(=O)CCO)cc3N3CCC4(CC3)CC4)cc3c2N(C)CC3)CCO1 [Compound 259] | ≤ 100 |
| O=C(Nc1ccc(S(=O)(=O)NCCO)cc1N1CCC2(CC1)CC2)c1cc2ccoc2c(N2CCOCC2)n1 [Compound 252] | ≤ 100 |
| C[C@@H]1CN(c2cc(C(=O)Nc3ccc(NS(=O)(=O)[C@@H](C)CO)cc3N3CCC4(CC3)CC4)cc3c2OCC3)CCO1 [Compound 47] | ≤ 100 |
| C[C@@H](CO)NS(=O)(=O)c1ccc(NC(=O)c2cc3c(c(N4CCC(F)(F)CC4)n2)N(C)CC3)c(N2CCC3(CC2)CC3)c1 [Compound 381] | ≤ 100 |
| Cn1ccc2cc(C(=O)Nc3ccc(S(=O)(=O)NCCO)cc3N3CCC4(CC3)CC4)cc(N3CCC(C)(F)C3)c21 (stereo not drawn) [Compound 440] | ≤ 100 |
| CC1(F)CCN(c2nc(NC(=O)c3ccc(NS(=O)(=O)CCO)cc3N3CCC4(CC3)CC4)cc3ccoc23)C1 (stereo not drawn) [Compound 200] | ≤ 100 |
| O=C(Nc1ccc(S(=O)(=O)NCCO)cc1N1CCC2(CC1)CC2)c1cc2c(c(N3CC4CC4C3)n1)OCC2 (stereo not drawn) [Compound 122] | ≤ 100 |
| CN1CCc2cc(NC(=O)c3ccc(S(=O)(=O)NCCO)cc3N3CCC4(CC3)CC4)cc(N3CC4CC4C3)c21 (stereo not drawn) [Compound 282] | ≤ 100 |
| O=C(Nc1ccc(S(=O)(=O)NCCO)cc1N1CCC2(CC1)CC2)c1cc(N2CC(F)(F)C2)c2occc2c1 [Compound 180] | ≤ 100 |
| CN1CCc2cc(NC(=O)c3ccc(S(=O)(=O)NCCO)cc3N3CCC4(CC3)CC4)cc(N3CC(F)(F)C3)c21 [Compound 276] | ≤ 100 |
| Cn1ccc2cc(C(=O)Nc3ccc(NS(=O)(=O)CCO)cc3N3CCC4(CC3)CC4)nc(N3CCC4(CC4)C3)c21 [Compound 486] | ≤ 100 |
| O=C(Nc1ccc(NS(=O)(=O)CCO)cc1N1CCC2(CC1)CC2)c1cc2c(c(OCCC(F)(F)F)n1)OCC2 [Compound 101] | ≤ 100 |
| CN1CCc2cc(NC(=O)c3ccc(NS(=O)(=O)CCO)cc3N3CCC4(CC3)CC4)nc(N3CCC4(CC4)C3)c21 [Compound 326] | ≤ 100 |
| Cn1ccc2cc(C(=O)Nc3ccc(NS(=O)(=O)CCO)cc3N3CCC4(CC3)CC4)cc(N3CCC(F)(F)CC3)c21 [Compound 417] | ≤ 100 |
| CN1CCc2cc(NC(=O)c3ccc(S(=O)(=O)NCCO)cc3N3CCC4(CC3)CC4)cc(N3CCC(F)(F)CC3)c21 [Compound 273] | ≤ 100 |
| O=C(Nc1cc2ccoc2c(OC2CCC2)n1)c1ccc(NS(=O)(=O)CCO)cc1N1CCC2(CC1)CC2 [Compound 199] | ≤ 100 |
| CC1(F)CCN(c2nc(C(=O)Nc3ccc(NS(=O)(=O)CCO)cc3N3CCC4(CC3)CC4)cc3c2OCC3)C1 (stereo not drawn) [Compound 104] | ≤ 100 |

| SMILES | IC50 [nM] |
| --- | --- |
| O=C(Nc1cc2ccoc2c(N2CCC3(CC3)C2)n1)c1ccc(NS(=O)(=O)CCO)cc1N1CCC2(CC1)CC2 [Compound 198] | ≤ 100 |
| CN1CCc2cc(NC(=O)c3ccc(NS(=O)(=O)CCO)cc3N3CCC4(CC3)CC4)nc(OCCC(F)(F)F)c21 [Compound 325] | ≤ 100 |
| Cn1ccc2cc(NC(=O)c3ccc(S(=O)(=O)NCCO)cc3N3CCC4(CC3)CC4)nc(N3CCC4(CC4)C3)c21 [Compound 470] | ≤ 100 |
| O=C(Nc1ccc(NS(=O)(=O)CCO)cc1N1CCC2(CC1)CC2)c1cc2ccoc2c(N2CCC(F)(F)CC2)n1 [Compound 225] | ≤ 100 |
| O=C(Nc1ccc(NS(=O)(=O)CCO)cc1N1CCC2(CC1)CC2)c1cc2ccoc2c(N2CCC3(CC3)C2)n1 [Compound 230] | ≤ 100 |
| C[C@H](CO)NS(=O)(=O)c1ccc(C(=O)Nc2cc(N3CCC(F)(F)CC3)c3occc3c2)c(N2CCC3(CC2)CC3)c1 [Compound 158] | ≤ 100 |
| C[C@@H]1CN(c2nc(NC(=O)c3ccc(S(=O)(=O)N[C@@H](C)CO)cc3N3CCC4(CC3)CC4)cc3ccn(C)c23)CCO1 [Compound 479] | ≤ 100 |
| C[C@@H](CO)NS(=O)(=O)c1ccc(NC(=O)c2cc3ccoc3c(N3CCC(F)(F)CC3)n2)c(N2CCC3(CC2)CC3)c1 [Compound 253] | ≤ 100 |
| Cn1ccc2cc(NC(=O)c3ccc(S(=O)(=O)NCCO)cc3N3CCC4(CC3)CC4)nc(OC3CCC3)c21 [Compound 471] | ≤ 100 |
| C[C@H]1CN(c2nc(NC(=O)c3ccc(S(=O)(=O)NCCO)cc3N3CCC4(CC3)CC4)cc3c2N(C)CC3)CCO1 [Compound 339] | ≤ 100 |
| C[C@@H]1CN(c2cc(C(=O)Nc3ccc(S(=O)(=O)NCCO)cc3N3CCC4(CC3)CC4)cc3ccn(C)c23)CCO1 [Compound 434] | ≤ 100 |
| C[C@H]1CN(c2nc(NC(=O)c3ccc(S(=O)(=O)NCCO)cc3N3CCC4(CC3)CC4)cc3c2OCC3)CCO1 [Compound 83] | ≤ 100 |
| O=C(Nc1cc2c(c(OC3CCC3)c1)OCC2)c1ccc(S(=O)(=O)NCCO)cc1N1CCC2(CC1)CC2 [Compound 23] | ≤ 100 |
| Cn1ccc2cc(NC(=O)c3ccc(S(=O)(=O)NCCO)cc3N3CCC4(CC3)CC4)cc(N3CCC(F)CC3)c21 [Compound 409] | ≤ 100 |
| O=C(Nc1ccc(S(=O)(=O)NCCO)cc1N1CCC2(CC1)CC2)c1cc2ccoc2c(N2CCC(F)(F)CC2)n1 [Compound 241] | ≤ 100 |
| Cn1ccc2cc(NC(=O)c3ccc(S(=O)(=O)NCCO)cc3N3CCC4(CC3)CC4)cc(N3CCOCC3)c21 [Compound 412] | ≤ 100 |
| C[C@H](CO)NS(=O)(=O)c1ccc(C(=O)Nc2cc(N3CCC(F)(F)CC3)c3c(ccn3C)c2)c(N2CCC3(CC2)CC3)c1 [Compound 414] | ≤ 100 |
| O=C(Nc1ccc(S(=O)(=O)NCCO)cc1N1CCC2(CC1)CC2)c1cc2c(c(N3CCC(F)(F)CC3)n1)OCCC2 [Compound 550] | ≤ 100 |
| O=C(Nc1ccc(NS(=O)(=O)CCO)cc1N1CCC2(CC1)CC2)c1cc2c(c(N3CC4CC4C3)c1)OCC2 (stereo not drawn) [Compound 42] | ≤ 100 |
| C[C@H](CO)NS(=O)(=O)c1ccc(NC(=O)c2cc3ccn(C)c3c(N3CCC(F)(F)CC3)n2)c(N2CCC3(CC2)CC3)c1 [Compound 510] | ≤ 100 |
| C[C@@H]1CN(c2cc(NC(=O)c3ccc(NS(=O)(=O)[C@@H](C)CO)cc3N3CCC4(CC3)CC4)cc3ccn(C)c23)CCO1 [Compound 399] | ≤ 100 |

| SMILES | IC50 [nM] |
| --- | --- |
| C[C@@H]1CN(c2cc(NC(=O)c3ccc(NS(=O)(=O)[C@H](C)CO)cc3N3CCC4(CC3)CC4)cc3ccn(C)c23)CCO1 [Compound 400] | ≤ 100 |
| O=C(Nc1ccc(S(=O)(=O)NCCO)cc1N1CCC2(CC1)CC2)c1cc(OCCC(F)(F)F)c2occc2c1 [Compound 181] | ≤ 100 |
| CN1CCc2cc(NC(=O)c3ccc(S(=O)(=O)NCCO)cc3N3CCC4(CC3)CC4)nc(N3CCC(F)(F)CC3)c21 [Compound 337] | ≤ 100 |
| C[C@@H]1CN(c2cc(C(=O)Nc3ccc(S(=O)(=O)N[C@@H](C)CO)cc3N3CCC4(CC3)CC4)cc3c2OCC3)CCO1 [Compound 63] | ≤ 100 |
| C[C@@H]1CN(c2nc(C(=O)Nc3ccc(S(=O)(=O)NCCO)cc3N3CCC4(CC3)CC4)cc3c2N(C)CC3)CCO1 [Compound 370] | ≤ 100 |
| O=C(Nc1cc2c(c(N3CC(F)(F)C3)n1)OCC2)c1ccc(S(=O)(=O)NCCO)cc1N1CCC2(CC1)CC2 [Compound 84] | ≤ 100 |
| CN1CCc2cc(NC(=O)c3ccc(S(=O)(=O)NCCO)cc3N3CCC4(CC3)CC4)nc(NC(C)(C)CO)c21 [Compound 347] | ≤ 100 |
| C[C@@H]1CN(c2nc(NC(=O)c3ccc(NS(=O)(=O)CCO)cc3N3CCC4(CC3)CC4)cc3c2N(C)CC3)CCO1 [Compound 322] | ≤ 100 |
| C[C@@H]1CN(c2cc(NC(=O)c3ccc(S(=O)(=O)NCCO)cc3N3CCC4(CC3)CC4)cc3ccn(C)c23)CCO1 [Compound 402] | ≤ 100 |
| C[C@@H]1CN(c2nc(NC(=O)c3ccc(S(=O)(=O)N[C@@H](C)CO)cc3N3CCC4(CC3)CC4)cc3c2N(C)CC3)CCO1 [Compound 351] | ≤ 100 |
| CN1CCc2cc(C(=O)Nc3ccc(S(=O)(=O)NCCO)cc3N3CCC4(CC3)CC4)cc(N3CCOCC3)c21 [Compound 316] | ≤ 100 |
| O=C(Nc1cc2c(c(N3CCC(F)(F)CC3)c1)NCC2)c1ccc(NS(=O)(=O)CCO)cc1N1CCC2(CC1)CC2 [Compound 523] | ≤ 100 |
| O=C(Nc1cc2c(c(N3CC(F)(F)C3)c1)OCC2)c1ccc(S(=O)(=O)NCCO)cc1N1CCC2(CC1)CC2 [Compound 20] | ≤ 100 |
| C[C@@H]1CN(c2nc(C(=O)Nc3ccc(NS(=O)(=O)[C@H](C)CO)cc3N3CCC4(CC3)CC4)cc3c2OCC3)CCO1 [Compound 112] | ≤ 100 |
| CC(C)(CO)Nc1nc(NC(=O)c2ccc(S(=O)(=O)NCCO)cc2N2CCC3(CC2)CC3)cc2c1OCC2 [Compound 91] | ≤ 100 |
| Cn1ccc2cc(NC(=O)c3ccc(S(=O)(=O)NCCO)cc3N3CCC4(CC3)CC4)cc(OC3CCC3)c21 [Compound 407] | ≤ 100 |
| C[C@@H]1CN(c2cc(C(=O)Nc3ccc(S(=O)(=O)N[C@@H](C)CO)cc3N3CCC4(CC3)CC4)cc3c2N(C)CC3)CCO1 [Compound 319] | ≤ 100 |
| Cn1cnc2cc(NC(=O)c3ccc(NS(=O)(=O)CCO)cc3N3CCC4(CC3)CC4)cc(N3CCC(F)(F)CC3)c21 [Compound 528] | ≤ 100 |
| Cn1ccc2cc(C(=O)Nc3ccc(NS(=O)(=O)CCO)cc3N3CCC4(CC3)CC4)cc(OC3CCC3)c21 [Compound 423] | ≤ 100 |
| Cn1ccc2cc(C(=O)Nc3ccc(NS(=O)(=O)CCO)cc3N3CCC4(CC3)CC4)cc(N3CCC(C)(F)C3)c21 (stereo not drawn) [Compound 424] | ≤ 100 |
| CC(C)(CO)Nc1cc(C(=O)Nc2ccc(S(=O)(=O)NCCO)cc2N2CCC3(CC2)CC3)cc2c1OCC2 [Compound 59] | ≤ 100 |
